Values after ≈ are worked out from the molar mass of the structure shown. Like-named read-outs stand apart in the source and are kept apart here.
Tests used:
Test in all cases: In vitro antibacterial activity, agar dilution
Format in all cases: cell-based
[1] = system: Streptococcus a-hemolyticus; settings: strain AMCH 88-84, Mueller-Hinton agar, read-out: Minimal Inhibitory Concentration
Description: (§1) The in vitro antibacterial effects of antibiotics LL-E19085α, LL-E19085β, LL-E19085γ, LL-E19085.zeta. and LL-E19085.eta. were determined by standard agar dilution methods against clinical isolates obtained from medical centers representing various geographical areas in the United States. The inoculum of each culture was approximately 1 to 5×10^4 colony forming units applied with a Steers multiple inocula replicator to plates containing the antibiotic in Mueller-Hinton agar. The agar was supplemented with about 5% sheep blood where required for the growth of the organism.

[2] = system: Streptococcus b-hemolyticus; settings: strain AMCH 88-86, Mueller-Hinton agar, read-out: Minimal Inhibitory Concentration
Description: as §1

[3] = system: Streptococcus faecalis; settings: Enterococcus faecalis, Mueller-Hinton agar, read-out: Minimal Inhibitory Concentration
Description: as §1

[4] = system: Staphylococcus aureus; settings: read-out: Minimal Inhibitory Concentration
Description: as §1

[5] = system: Staphylococcus hemolyticus; settings: read-out: Minimal Inhibitory Concentration
Description: as §1

[6] = system: Enterococcus; settings: read-out: Minimal Inhibitory Concentration
Description: as §1

[7] = system: Escherichia coli
Description: as §1

[8] = system: Streptococcus pneumoniae; settings: read-out: Minimal Inhibitory Concentration
Description: as §1

[9] = system: Klebsiella pneumoniae; settings: read-out: Minimal Inhibitory Concentration
Description: as §1

[10] = system: Enterococcus Grp D; settings: strain WRVA 88-33, Mueller-Hinton agar, read-out: Minimal Inhibitory Concentration
Description: as §1

[11] = system: Bacteroides cereus; settings: read-out: Minimal Inhibitory Concentration
Description: as §1

[12] = system: Bacteroides fragilis; settings: ATCC25285, strain ATCC 25285, Mueller-Hinton agar, read-out: Minimal Inhibitory Concentration
Description: as §1

[13] = system: Clostridium differensis; settings: ATCC17858, strain ATCC 17858, Mueller-Hinton agar, read-out: Minimal Inhibitory Concentration
Description: as §1

[14] = system: Proteus vulgaris; settings: strain CMC 84-35, Mueller-Hinton agar, read-out: Minimal Inhibitory Concentration
Description: as §1

[15] = system: Pseudomonas aeruginosa; settings: strain 12-4-4, Mueller-Hinton agar, read-out: Minimal Inhibitory Concentration
Description: as §1

[16] = system: Alcaligenes ssp.; settings: strain ISG 86-34, Mueller-Hinton agar, read-out: Minimal Inhibitory Concentration
Description: as §1

[17] = system: Clostridium perfringen; settings: ATCC13124, strain ATCC 13124, Mueller-Hinton agar, read-out: Minimal Inhibitory Concentration
Description: as §1

[18] = system: Morganella morganii; settings: strain VGH 84-11, Mueller-Hinton agar, read-out: Minimal Inhibitory Concentration
Description: as §1

[19] = system: Bacteroides vulgaris; settings: ATCC29327, strain ATCC 29327, Mueller-Hinton agar, read-out: Minimal Inhibitory Concentration
Description: as §1

[20] = system: Citrobacter diversis; settings: strain MOR 84-3, Mueller-Hinton agar, read-out: Minimal Inhibitory Concentration
Description: as §1

[21] = system: Bacteroides theta; settings: read-out: Minimal Inhibitory Concentration
Description: as §1

[22] = system: Serratia marcescens; settings: strain K 84-14, Mueller-Hinton agar, read-out: Minimal Inhibitory Concentration
Description: as §1

[23] = system: Enterobacter cloacae; settings: strain VGH 84-37, Mueller-Hinton agar, read-out: Minimal Inhibitory Concentration
Description: as §1

[24] = system: Staphylococcus saphrophiticus; settings: strain VGH 84-50, Mueller-Hinton agar, read-out: Minimal Inhibitory Concentration
Description: as §1

[25] = system: Streptococcus β-hemolyticus; settings: Mueller-Hinton agar
Description: as §1

[26] = system: erratia rubidea; settings: strain UHL 86-4; Mueller-Hinton agar; read-out: Minimal Inhibitory Concentration
Description: as §1

[27] = system: Staphylococcus epidermidis; settings: strain IO 83-58, Mueller-Hinton agar, read-out: Minimal Inhibitory Concentration
Description: as §1

[28] = system: Peptococcus asacrolytis; settings: strain ATCC 29743; Mueller-Hinton agar; read-out: Minimal Inhibitory Concentration
Description: as §1

[29] = system: Peptococcus magnus; settings: Finegoldia magna, Mueller-Hinton agar, read-out: Minimal Inhibitory Concentration
Description: as §1

[30] = ATCC25923, strain ATCC 25923, Mueller-Hinton agar
[31] = ATCC29213, strain ATCC 29213, Mueller-Hinton agar
[32] = strain CMC 83-131, Mueller-Hinton agar
[33] = ATCC25922, strain ATCC 25922, Mueller-Hinton agar, read-out: Minimal Inhibitory Concentration

`COc1cc2oc3c(c(=O)c2cc1OC)C(=O)c1c(ccc2cc4c(c(O)c12)C(=O)N1C(C)(C4)OC(=O)C1(C)CO)C3=O` (centres unmarked) [LL-E19085.eta.] gave an MIC [1] of no more than 0.015 µg/mL, an MIC [2] of no more than 0.015 µg/mL and an MIC ([3]; strain ARUM 87-41) of no more than 0.015 µg/mL. It also gave an MIC ([3]; strain CMC 83-120) of no more than 0.015 µg/mL, an MIC ([3]; strain VCH 84-69) of no more than 0.015 µg/mL and an MIC ([3]; strain VCI 85-30) of no more than 0.015 µg/mL. The MIC [4, 30] was no more than 0.015 µg/mL, the MIC [4, 31] was no more than 0.015 µg/mL and the MIC [4, 32] was 0.12 µg/mL (≈ 0.205 µM). The MIC ([4]; strain IVES 542, Mueller-Hinton agar) was no more than 0.015 µg/mL, the MIC ([4]; strain K82-26, Mueller-Hinton agar) was no more than 0.015 µg/mL and the MIC ([4]; strain NEMC 87-69, Mueller-Hinton agar) was no more than 0.015 µg/mL. The MIC ([4]; strain ROSE (MP), Mueller-Hinton agar) was no more than 0.015 µg/mL, the MIC ([4]; strain VGH 84-47, Mueller-Hinton agar) was no more than 0.015 µg/mL and the MIC ([5]; strain AVAH 88-1, Mueller-Hinton agar) was no more than 0.015 µg/mL. For the same molecule, the MIC ([5]; strain AVAH 88-3, Mueller-Hinton agar) was no more than 0.015 µg/mL, the MIC ([6]; strain CHBM 88-60, Mueller-Hinton agar) was no more than 0.015 µg/mL and the MIC [7, 33] was greater than 32 µg/mL. The MIC ([7]; ATCC35218, strain ATCC 35218, Mueller-Hinton agar, read-out: Minimal Inhibitory Concentration) was greater than 32 µg/mL, the MIC ([7]; read-out: Minimal Inhibitory Concentration, strain D21, Mueller-Hinton agar) was no less than 32 µg/mL and the MIC ([7]; strain D22, Mueller-Hinton agar, read-out: Minimal Inhibitory Concentration) was 2 µg/mL (≈ 3.42 µM). It also gave an MIC ([8]; strain CHBB 88-75, Mueller-Hinton agar) of no more than 0.015 µg/mL, an MIC ([8]; strain CHBM 88-70, Mueller-Hinton agar) of no more than 0.015 µg/mL and an MIC ([8]; strain TEX 85-2, Mueller-Hinton agar) of no more than 0.015 µg/mL. The MIC ([9]; strain NEMC 87-271, Mueller-Hinton agar) was no less than 32 µg/mL, the MIC [10] was no more than 0.015 µg/mL and the MIC [11] was no more than 0.015 µg/mL.
For `COc1cc2oc3c(c(=O)c2cc1OC)C(=O)c1c(ccc2cc4c(c(O)c12)C(=O)N1C(C)(C4)OC(=O)C1(C)COC(=O)CC(C)C)C3=O` (stereo not drawn) [LL-E19085α], the MIC [12] was 16 µg/mL (≈ 23.9 µM), the MIC [13] was no more than 0.06 µg/mL and the MIC [14] was greater than 128 µg/mL. The MIC [15] was greater than 128 µg/mL, the MIC [16] was greater than 128 µg/mL and the MIC [17] was no more than 0.06 µg/mL. It also gave an MIC [18] greater than 128 µg/mL, an MIC [4, 30] of 0.12 µg/mL (≈ 0.179 µM) and an MIC [4, 31] of no more than 0.06 µg/mL. For the same molecule, the MIC ([4]; strain CMC 83-127, Mueller-Hinton agar) was no more than 0.06 µg/mL, the MIC [4, 32] was no more than 0.06 µg/mL and the MIC ([4]; strain CMC 83-132, Mueller-Hinton agar) was no more than 0.06 µg/mL. The MIC ([4]; strain SSC 82-57, Mueller-Hinton agar) was no more than 0.06 µg/mL, the MIC ([4]; strain Smith, Mueller-Hinton agar) was 0.12 µg/mL (≈ 0.179 µM) and the MIC ([4]; strain VGH 84-45, Mueller-Hinton agar) was no more than 0.06 µg/mL. The MIC [19] was no more than 0.06 µg/mL, the MIC ([6]; strain CMC 83-72, Mueller-Hinton agar) was no more than 0.06 µg/mL and the MIC ([6]; strain IO 83-28, Mueller-Hinton agar) was no more than 0.06 µg/mL. For the same molecule, the MIC ([6]; strain IO 83-40, Mueller-Hinton agar) was 0.12 µg/mL (≈ 0.179 µM), the MIC ([6]; strain VGH 84-65, Mueller-Hinton agar) was no more than 0.06 µg/mL and the MIC ([6]; strain VGH 84-68, Mueller-Hinton agar) was no more than 0.06 µg/mL. The MIC [20] was greater than 128 µg/mL, the MIC ([21]; ATCC29741, strain ATCC 29741, Mueller-Hinton agar) was 4 µg/mL (≈ 5.97 µM) and the MIC ([21]; ATCC29742, strain ATCC 29742, Mueller-Hinton agar) was 4 µg/mL (≈ 5.97 µM). The MIC [7, 33] was greater than 128 µg/mL, the MIC ([7]; strain No. 311, Mueller-Hinton agar, read-out: Minimal Inhibitory Concentration) was greater than 128 µg/mL and the MIC ([8]; strain K 84-21, Mueller-Hinton agar) was no more than 0.06 µg/mL. For the same molecule, the MIC ([8]; strain SV-1, Mueller-Hinton agar) was no more than 0.06 µg/mL, the MIC [22] was greater than 128 µg/mL and the MIC [23] was greater than 128 µg/mL. For the same molecule, the MIC [24] was no more than 0.06 µg/mL, the MIC ([25]; Streptococcus, strain C 203, read-out: Minimal Inhibitory Concentration) was no more than 0.06 µg/mL and the “Minimal Inhibitory Concentration” value ([25]; strain VGH 84-60) was no more than 0.06 µg/mL. The “Minimal Inhibitory Concentration” value ([25]; strain VGH 84-61) was no more than 0.06 µg/mL, the “Minimal Inhibitory Concentration” value ([25]; strain VGH 84-62) was no more than 0.06 µg/mL and the MIC ([9]; strain AD, Mueller-Hinton agar) was greater than 128 µg/mL. It also gave an MIC [26] greater than 128 µg/mL, an MIC [27] of no more than 0.06 µg/mL and an MIC [28] of no more than 0.06 µg/mL. For the same molecule, the MIC ([29]; ATCC14956, strain ATCC 14956) was no more than 0.06 µg/mL and the MIC ([29]; ATCC29328, strain ATCC 29328) was no more than 0.06 µg/mL.
